Data on 1 molecule can be found in publication PMC4354731 (Biochimica et biophysica acta, 2013).

Molecules are shown by their SMILES.

Test [1] has as its target fumarate reductase (FrdABCD), FrdB subunit (Escherichia coli, UniProt P0A8Q0+P0A8Q3+P0AC47, P0AC47:S204R). Description: biochemical.
In test [2] the target is fumarate reductase (FrdABCD), FrdB subunit (Escherichia coli, UniProt P0A8Q0+P0A8Q3+P0AC47). Put plainly: fluorescence quench titration in enriched membranes. Type of test: binding.
For test [3], the target named is fumarate reductase (FrdABCD), FrdB subunit (Escherichia coli, UniProt P0A8Q0+P0A8Q3+P0AC47, P0AC47:K229E). Put plainly: biochemical.
Test [4] has as its target fumarate reductase (FrdABCD), FrdB subunit (Escherichia coli, UniProt P0A8Q0+P0A8Q3+P0AC47, P0AC47:K229L). Description: biochemical.
Test [5] addresses fumarate reductase (FrdABCD), FrdB subunit (Escherichia coli, UniProt P0A8Q0+P0A8Q3+P0AC47, P0AC47:K229R). Description: biochemical.

As usually defined, the Kd is the constant that tells how readily two partners part at equilibrium. A higher Kd goes with lower affinity. Consider `CCCCCCCc1cc(O)c2ccccc2[n+]1[O-]` [HOQNO, 2-n-heptyl-4-hyroxyquinoline-N-oxide], for which the Kd is 5 nM in test [1]; 5 nM in test [2]; 110 nM in test [3]; 110 nM in test [4]; 80 nM in test [5].
